# From ChEMBL document CHEMBL3988442, “University of Dundee, Small-Polar-MMV Screening Library” (2021)
# “And” between values parts separate entries of the source, which are not always exact repeats. Equal values may be shown once.
# Columns and labels:
# [1] = To identify inhibition of the IFN signalling (Jak-Stat) pathway via expression of an eGFP reporter gene under the control of an IFN-stimulated response element (ISRE) containing MxA promoter.; type: functional, Homo sapiens
# [2] = target: T1, Coenzyme A biosynthesis bifunctional protein CoaBC (Mycobacterium tuberculosis (strain ATCC 25618 / H37Rv), UniProt P9WNZ1); test: Biomol Green assay for MtCoaBC inhibitor, OD650 read; type: functional
# T1 sequence (P9WNZ1 whole entry): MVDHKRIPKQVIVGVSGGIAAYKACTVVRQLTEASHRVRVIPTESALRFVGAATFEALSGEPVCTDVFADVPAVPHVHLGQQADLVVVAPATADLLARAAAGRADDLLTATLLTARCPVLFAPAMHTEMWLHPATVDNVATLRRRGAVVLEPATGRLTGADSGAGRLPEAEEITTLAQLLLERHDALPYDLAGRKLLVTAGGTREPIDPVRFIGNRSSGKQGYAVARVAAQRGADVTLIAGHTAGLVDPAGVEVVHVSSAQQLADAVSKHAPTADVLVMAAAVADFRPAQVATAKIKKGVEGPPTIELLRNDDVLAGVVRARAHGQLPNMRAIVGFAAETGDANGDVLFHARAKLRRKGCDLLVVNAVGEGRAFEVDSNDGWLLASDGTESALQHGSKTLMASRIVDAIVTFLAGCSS
# [3] = target: AMP-activated protein kinase, AMPK; test: AMP-dependent Kinase enzyme assay. An in vitro enzyme assay that detects ADP turnover that is directly proportional to AMPK activity. This uses naive AMPK that is activated during the assay with MK-8722; type: functional, Homo sapiens
# [4] = target: Polyketide synthase Pks13 (Mycobacterium tuberculosis (strain ATCC 25618 / H37Rv), UniProt I6X8D2); test: Mycobacterium tuberculosis Polyketide synthase 13 Thioesterase (PKS13); type: functional
# Plasmodium falciparum = test: Calibr Malaria Delayed Death Assay SOP; type: functional, organism-based
# Chain of Polyketide synthase Pks13 (I6X8D2 whole entry): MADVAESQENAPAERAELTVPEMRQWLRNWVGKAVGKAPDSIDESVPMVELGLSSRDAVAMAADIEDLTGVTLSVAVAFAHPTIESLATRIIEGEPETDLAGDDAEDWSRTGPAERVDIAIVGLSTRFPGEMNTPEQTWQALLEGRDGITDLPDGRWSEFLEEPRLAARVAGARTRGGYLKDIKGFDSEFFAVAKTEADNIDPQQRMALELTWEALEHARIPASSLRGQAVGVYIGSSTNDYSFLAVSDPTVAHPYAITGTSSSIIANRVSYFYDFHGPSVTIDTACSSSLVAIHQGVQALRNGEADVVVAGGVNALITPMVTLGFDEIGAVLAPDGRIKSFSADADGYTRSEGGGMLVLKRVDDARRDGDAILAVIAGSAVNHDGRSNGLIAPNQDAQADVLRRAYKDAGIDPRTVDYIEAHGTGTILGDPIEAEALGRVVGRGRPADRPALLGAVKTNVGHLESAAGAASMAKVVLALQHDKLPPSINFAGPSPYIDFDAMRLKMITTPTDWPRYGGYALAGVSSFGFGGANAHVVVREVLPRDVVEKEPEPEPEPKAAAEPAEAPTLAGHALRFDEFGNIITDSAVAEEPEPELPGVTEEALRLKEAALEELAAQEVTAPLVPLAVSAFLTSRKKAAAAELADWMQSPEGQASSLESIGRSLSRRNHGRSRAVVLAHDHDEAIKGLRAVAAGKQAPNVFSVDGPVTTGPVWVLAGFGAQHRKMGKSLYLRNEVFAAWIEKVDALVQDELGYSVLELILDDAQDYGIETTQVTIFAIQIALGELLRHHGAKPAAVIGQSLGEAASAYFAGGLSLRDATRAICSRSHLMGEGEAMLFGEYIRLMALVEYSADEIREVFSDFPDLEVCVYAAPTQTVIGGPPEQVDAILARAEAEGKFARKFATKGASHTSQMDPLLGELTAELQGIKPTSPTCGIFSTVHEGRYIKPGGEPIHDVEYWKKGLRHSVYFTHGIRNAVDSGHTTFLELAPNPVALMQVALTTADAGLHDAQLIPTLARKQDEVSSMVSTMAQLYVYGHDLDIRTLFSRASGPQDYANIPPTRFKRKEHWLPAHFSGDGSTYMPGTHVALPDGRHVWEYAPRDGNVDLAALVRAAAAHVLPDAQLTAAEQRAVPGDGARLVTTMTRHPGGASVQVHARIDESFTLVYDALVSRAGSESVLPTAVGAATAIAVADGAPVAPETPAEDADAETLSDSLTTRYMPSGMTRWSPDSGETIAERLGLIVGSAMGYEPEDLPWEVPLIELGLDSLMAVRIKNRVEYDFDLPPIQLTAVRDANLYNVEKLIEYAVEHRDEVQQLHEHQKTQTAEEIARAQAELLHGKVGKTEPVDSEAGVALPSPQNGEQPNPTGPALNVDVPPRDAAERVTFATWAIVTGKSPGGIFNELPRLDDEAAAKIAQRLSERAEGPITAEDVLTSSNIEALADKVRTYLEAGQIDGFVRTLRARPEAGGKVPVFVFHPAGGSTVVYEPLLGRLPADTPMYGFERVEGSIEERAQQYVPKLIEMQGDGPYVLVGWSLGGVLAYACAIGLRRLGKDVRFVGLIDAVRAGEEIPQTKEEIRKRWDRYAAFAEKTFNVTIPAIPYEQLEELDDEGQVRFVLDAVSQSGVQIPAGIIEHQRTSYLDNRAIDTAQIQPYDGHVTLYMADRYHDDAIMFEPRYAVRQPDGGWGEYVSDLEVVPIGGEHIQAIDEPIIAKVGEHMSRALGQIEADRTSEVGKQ
Compound,pIC50 [1],further results
Cc1cc(-c2cnc(N3CCCC(C)C3)nc2-c2cccnc2C)on1.Cl (configuration not stated),4.421 and 4.521,
COC(=O)c1ccc(S(=O)(=O)NCc2cccnc2N(C)C)cc1,4.637 and 5.104,
CCc1nc(CN2CCN(c3ncnc4cc(F)ccc34)CC2)no1,5.76 [middle of 4 runs],
CC(C)c1n[nH]c(C(=O)NC(C)c2ccncc2)c1Br (configuration not stated),,IC50 [2]: > 30.2 µM; pIC50 [3]: < 4
COc1ccc(C)cc1CN1CCCC1c1noc(C2CC2)n1 (configuration not stated),4.543 and 4.502,
COc1cc(/C=C/c2ncc(C(=O)O)s2)cc(Cl)c1O,,IC50 [2]: > 50.1 µM and > 30.2 µM (2×) and 45.3 µM; pIC50 [3]: 4.507 and 4.461; IC50 [4]: 23.7 µM and 18.7 µM
COc1cccc(CN2CCN(c3ccc4nncn4n3)C(C)C2)c1 (configuration not stated),4.923 and 4.922,
O=C(C1CCN(c2snc3ccccc23)CC1)N1CCCCCC1,4.575 and 4.655,
Cc1nc(N)nc(C)c1CC(=O)N1CCC2(CC1)OCCCC2O (configuration not stated),,IC50 [2]: > 30.2 µM; pIC50 [3]: < 4
O=C1NCCN1C1CCCN(Cc2coc(-c3ccc(F)cc3)n2)C1 (configuration not stated),4.93 and 4.918,
c1cnn(CC2CCCN2c2ncnc3sccc23)c1 (configuration not stated),5.137 and 5.086,
Cc1ccc(C(=O)Nc2cc(C(C)C)n[nH]2)cn1,4.606 and 4.922,
CC(C)N(CC(N)=O)Cc1csc(COc2ccc(F)cc2)n1,5.121 and 5.081,
CC1(C)Cc2ccccc2-c2nc(NCCO)[nH]c(=O)c21,,pIC50 [3]: 4.722 and 4.636 and 4.548 and 4.621; IC50 [4]: 16.8 µM and 19.4 µM
c1cnn(CC2CN(c3ncnc4ccsc34)CCO2)c1 (configuration not stated),4.809 and 4.868,
CC(C)c1nc(C2CCCN(C(=O)CCCn3cncn3)C2)no1 (configuration not stated),< 4.21,
COc1ccc(-c2nnc(SC(C)C(=O)NC3CC3)[nH]2)c(OC)c1 (configuration not stated),4.665 and 4.584,
Cc1ccnc(NC(=O)c2[nH]nc(C(C)C)c2Br)c1,,pIC50 (Plasmodium falciparum): 6.433; IC50 (Plasmodium falciparum; Plasmodium falciparum): 0.23 µM; IC50 [2]: > 30.2 µM; pIC50 [3]: < 4
Cc1cc(CN2CCCC2c2noc(C3CC3)n2)c2ccccc2n1 (configuration not stated),5.12 and 5.038,
CCS(=O)(=O)N1CCCc2ccc(NC(=O)Cc3ccc(F)cc3)cc21,4.555 and 4.597,
CN(C)c1ccc(CCCNC(=O)Nc2ccc(C#N)cc2)cc1,4.654 and 4.645,
CCS(=O)(=O)N1CCc2ccc(NC(=O)Nc3cccc(SC)c3)cc21,5.726 [middle of 4 runs],
Nc1nccc(-c2c[nH]nc2C2CCCCC2)n1,4.943 and 4.951,
Cc1ccc(S(=O)(=O)N2C[C@H]3C[C@H](NC(=O)c4ccnn4C)[C@H]3C2)cc1,5.601 and 5.47 and 5.597 and 5.592,
